Laboratory results from ChEMBL document CHEMBL1201862, “PubChem BioAssay data set” (2004).
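Exposure lasted 48 hours, with cells grown in 96-well plates and compounds tested at five concentrations. The concentration for 50% growth inhibition is given as GI50.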 The source made the active and inactive calls. No stated cut-off is given here; in the data, active = GI50 up to about 1.1 µM and inactive = higher.

Assays:
Assay in all cases: inhibition of tumour cell growth, NCI panel, 48 h
HT-29 = test system: HT-29
HOP-92 = test system: HOP-92
786-0 = test system: 786-0
UACC-62 = test system: UACC-62
SK-MEL-2 = test system: SK-MEL-2
MOLT-4 = test system: MOLT-4
UACC-257 = test system: UACC-257
SK-OV-3 = test system: SK-OV-3
OVCAR-5 = test system: OVCAR-5
OVCAR-3 = test system: OVCAR-3
COLO 205 = test system: COLO 205
ACHN = test system: ACHN
HCT-116 = test system: HCT-116
SN12C = test system: SN12C
RPMI-8226 = test system: RPMI-8226
NCI-H460 = test system: NCI-H460
SF-539 = test system: SF-539

Measured: GI50

CNC(=O)N(CCCC(NC(C)=O)C(=O)NCc1ccccc1)Cc1ccccc1 (centres undefined)
inactive: HT-29 > 100 µM | HOP-92 > 100 µM | 786-0 > 100 µM | UACC-62 > 100 µM | SK-MEL-2 > 100 µM | MOLT-4 > 100 µM | UACC-257 > 100 µM | SK-OV-3 > 100 µM | OVCAR-5 > 100 µM | OVCAR-3 > 100 µM | COLO 205 > 100 µM | ACHN > 100 µM | HCT-116 > 100 µM | SN12C > 100 µM | RPMI-8226 > 100 µM | NCI-H460 > 100 µM | SF-539 > 100 µM

CC1(C)CCC(=O)c2c(O)ccc(O)c21
inactive: HT-29 30.1 µM | HOP-92 15.4 µM | 786-0 > 100 µM | UACC-62 66.8 µM | SK-MEL-2 86.5 µM | MOLT-4 41.7 µM | UACC-257 25.1 µM | SK-OV-3 > 100 µM | OVCAR-5 > 100 µM | OVCAR-3 > 100 µM | COLO 205 > 100 µM | HCT-116 51.9 µM | SN12C > 100 µM | RPMI-8226 55.3 µM | SF-539 77.4 µM

COc1cc(CC2C(=O)OCC2[C@@H](OC(C)=O)c2ccc3c(c2)OCO3)c(Br)c(OC)c1OC (some centres undefined)
inactive: HT-29 35.9 µM | HOP-92 12 µM | 786-0 > 100 µM | UACC-62 37.8 µM | SK-MEL-2 61.4 µM | MOLT-4 35.2 µM | UACC-257 69.5 µM | SK-OV-3 > 100 µM | OVCAR-3 59.2 µM | COLO 205 36.8 µM | ACHN 99.8 µM | HCT-116 76.7 µM | SN12C > 100 µM | NCI-H460 48.3 µM | SF-539 > 100 µM

O=C1OCCC1C(O)C1c2ccccc2-c2ccccc21 (centres undefined)
inactive: HT-29 > 100 µM | HOP-92 > 100 µM | 786-0 > 100 µM | UACC-62 > 100 µM | SK-MEL-2 > 100 µM | MOLT-4 > 100 µM | UACC-257 > 100 µM | SK-OV-3 > 100 µM | OVCAR-5 > 100 µM | OVCAR-3 > 100 µM | COLO 205 > 100 µM | ACHN > 100 µM | HCT-116 > 100 µM | SN12C > 100 µM | RPMI-8226 > 100 µM | NCI-H460 > 100 µM

O=S(=O)(N/N=C\c1c2ccccc2[n+]([O-])c2ccccc12)c1ccc(Cl)cc1
inactive: HT-29 > 100 µM | HOP-92 > 100 µM | 786-0 43.5 µM | UACC-62 > 100 µM | SK-MEL-2 46.1 µM | MOLT-4 58.6 µM | UACC-257 > 100 µM | SK-OV-3 > 100 µM | OVCAR-5 > 100 µM | OVCAR-3 > 100 µM | COLO 205 > 100 µM | ACHN 35.6 µM | HCT-116 45.5 µM | SN12C > 100 µM | RPMI-8226 > 100 µM | NCI-H460 > 100 µM

CCCCCCc1cc2c(C)c(C)c(=O)oc2cc1OCCCOc1cc2oc(=O)c(C)c(C)c2cc1CCCCCC
inactive: HT-29 > 100 µM | HOP-92 > 100 µM | 786-0 > 100 µM | UACC-62 > 100 µM | SK-MEL-2 > 100 µM | MOLT-4 > 100 µM | UACC-257 > 100 µM | SK-OV-3 > 100 µM | OVCAR-5 > 100 µM | OVCAR-3 > 100 µM | HCT-116 > 100 µM | RPMI-8226 > 100 µM | NCI-H460 > 100 µM | SF-539 > 100 µM

COc1ccccc1NC(=O)C(=O)C1C(=O)Nc2ccccc2[S+]1[O-] (centres undefined)
inactive: HT-29 > 100 µM | 786-0 > 100 µM | UACC-62 > 100 µM | SK-MEL-2 > 100 µM | MOLT-4 > 100 µM | UACC-257 > 100 µM | SK-OV-3 > 100 µM | OVCAR-5 > 100 µM | OVCAR-3 > 100 µM | COLO 205 > 100 µM | ACHN > 100 µM | HCT-116 > 100 µM | SN12C > 100 µM | NCI-H460 > 100 µM | SF-539 > 100 µM

N#CC1CCCCC1NC1(C#N)CCCCC1 (centres undefined)
inactive: HT-29 > 100 µM | 786-0 > 100 µM | UACC-62 > 100 µM | SK-MEL-2 > 100 µM | MOLT-4 > 100 µM | UACC-257 > 100 µM | SK-OV-3 > 100 µM | OVCAR-3 > 100 µM | COLO 205 > 100 µM | SN12C > 100 µM | RPMI-8226 > 100 µM | SF-539 > 100 µM

COC(=O)C(C(=O)C(=O)Nc1ccccc1C)c1nc2ccc([N+](=O)[O-])cc2nc1O (centres undefined)
inactive: HT-29 > 100 µM | 786-0 > 100 µM | UACC-62 > 100 µM | SK-MEL-2 > 100 µM | MOLT-4 > 100 µM | UACC-257 > 100 µM | SK-OV-3 > 100 µM | OVCAR-5 > 100 µM | OVCAR-3 > 100 µM | COLO 205 > 100 µM | ACHN > 100 µM | HCT-116 > 100 µM | SN12C > 100 µM | RPMI-8226 > 100 µM | NCI-H460 > 100 µM | SF-539 > 100 µM

Cc1ccc(S(=O)(=O)C(C#N)c2nc3ccccc3nc2N2CCOCC2)cc1 (centres undefined)
inactive: 786-0 30.2 µM | UACC-62 12.4 µM | SK-MEL-2 33.1 µM | MOLT-4 19.2 µM | UACC-257 33.8 µM | SK-OV-3 61.5 µM | OVCAR-5 > 100 µM | OVCAR-3 33.8 µM | COLO 205 30.3 µM | ACHN 30.3 µM | HCT-116 18.2 µM | SN12C 28.2 µM | RPMI-8226 22 µM | NCI-H460 17.9 µM | SF-539 38.8 µM

O=Cc1c[nH]c2c(=O)[nH]cnc12
inactive: HT-29 > 100 µM | HOP-92 > 100 µM | 786-0 > 100 µM | UACC-62 > 100 µM | SK-MEL-2 > 100 µM | MOLT-4 > 100 µM | UACC-257 > 100 µM | SK-OV-3 > 100 µM | OVCAR-3 > 100 µM | COLO 205 > 100 µM | ACHN > 100 µM | HCT-116 > 100 µM | SN12C > 100 µM | RPMI-8226 > 100 µM

Cc1ccc2nc3c(C(=O)NCCN(C)C)cccc3nc2c1
inactive: HT-29 2.32 µM | HOP-92 2.38 µM | 786-0 11.5 µM | UACC-62 4.35 µM | SK-MEL-2 2.76 µM | MOLT-4 1.64 µM | UACC-257 3.8 µM | SK-OV-3 14.8 µM | OVCAR-5 6.34 µM | OVCAR-3 5.38 µM | COLO 205 2.59 µM | ACHN 1.91 µM | HCT-116 1.59 µM | SN12C 3.42 µM | RPMI-8226 3.6 µM | SF-539 4.2 µM

CC1(C)OC(C[C@]2(C#N)C[C@H](CCl)OC(C)(C)O2)C[C@@H](C[C@]2(C#N)C[C@H](CCl)OC(C)(C)O2)O1 (some centres undefined)
inactive: HT-29 > 100 µM | HOP-92 > 100 µM | 786-0 > 100 µM | UACC-62 > 100 µM | SK-MEL-2 > 100 µM | MOLT-4 38.8 µM | UACC-257 17.3 µM | SK-OV-3 > 100 µM | OVCAR-5 > 100 µM | OVCAR-3 > 100 µM | COLO 205 > 100 µM | ACHN > 100 µM | HCT-116 60.4 µM | SN12C > 100 µM | RPMI-8226 > 100 µM | NCI-H460 > 100 µM | SF-539 > 100 µM

CC#CC1/C(=C\C(=O)OC)CCCC1O (centres undefined)
inactive: HT-29 > 100 µM | 786-0 > 100 µM | UACC-62 > 100 µM | SK-MEL-2 > 100 µM | MOLT-4 > 100 µM | UACC-257 > 100 µM | SK-OV-3 > 100 µM | OVCAR-5 > 100 µM | OVCAR-3 > 100 µM | ACHN > 100 µM | HCT-116 > 100 µM | SN12C > 100 µM | NCI-H460 > 100 µM | SF-539 > 100 µM

CC(=O)OC[C@@H](COC(=O)/C=C/c1ccc(O)cc1)OC1OC(CO)C(O)C(O)C1O (some centres undefined)
inactive: HT-29 > 100 µM | HOP-92 > 100 µM | 786-0 > 100 µM | UACC-62 > 100 µM | SK-MEL-2 > 100 µM | MOLT-4 > 100 µM | UACC-257 > 100 µM | SK-OV-3 > 100 µM | OVCAR-5 > 100 µM | OVCAR-3 > 100 µM | COLO 205 > 100 µM | ACHN > 100 µM | HCT-116 > 100 µM | SN12C > 100 µM | RPMI-8226 > 100 µM | NCI-H460 > 100 µM | SF-539 > 100 µM

c1ccc([S+](c2ccccc2)c2ccc(Sc3ccc([S+](c4ccccc4)c4ccccc4)cc3)cc2)cc1
inactive: HT-29 18.2 µM | HOP-92 27.6 µM | 786-0 43.8 µM | UACC-62 24 µM | MOLT-4 9.73 µM | UACC-257 12.5 µM | SK-OV-3 21.9 µM | OVCAR-5 12.3 µM | OVCAR-3 10.2 µM | COLO 205 17.4 µM | ACHN 26.4 µM | HCT-116 21.8 µM | SN12C 17.9 µM | RPMI-8226 4.88 µM | NCI-H460 29.6 µM | SF-539 31.3 µM

CSc1ccc2c(cc1=O)[C@@H](NC(=O)c1cc(O)c(O)c(O)c1)CCc1cc(O)c(O)c(O)c1-2
inactive: HT-29 24 µM | 786-0 34.6 µM | UACC-62 19.2 µM | MOLT-4 18.5 µM | UACC-257 18 µM | SK-OV-3 > 100 µM | OVCAR-5 15 µM | OVCAR-3 31 µM | COLO 205 28 µM | ACHN 34.1 µM | HCT-116 16 µM | SN12C 18.1 µM | NCI-H460 20 µM | SF-539 24.7 µM
